One assay addresses T1, hSLC19A3-wt (Homo sapiens, UniProt Q9BZV2).
T1 construct: full-length, wildtype human SLC19A3; made in house; host or cells: Expi293F
The assay is described as follows: nanoDSF thermal shift assay / apparent binding affinity, wildtype transporter. The conditions noted are these: for thermal shift / interaction with hSLC19A3, in words: thermal shift screen at 20 μM and 200 μM compound.

Assay [1] deals with T2, hSLC19A3-wt overexpressed in Expi293F cells (Homo sapiens, UniProt Q9BZV2).
T2 construct: full-length, wildtype human SLC19A3; expressed in transfected cells; host or cells: Expi293F
T2 sequence (Q9BZV2 with tags, fused parts or gaps): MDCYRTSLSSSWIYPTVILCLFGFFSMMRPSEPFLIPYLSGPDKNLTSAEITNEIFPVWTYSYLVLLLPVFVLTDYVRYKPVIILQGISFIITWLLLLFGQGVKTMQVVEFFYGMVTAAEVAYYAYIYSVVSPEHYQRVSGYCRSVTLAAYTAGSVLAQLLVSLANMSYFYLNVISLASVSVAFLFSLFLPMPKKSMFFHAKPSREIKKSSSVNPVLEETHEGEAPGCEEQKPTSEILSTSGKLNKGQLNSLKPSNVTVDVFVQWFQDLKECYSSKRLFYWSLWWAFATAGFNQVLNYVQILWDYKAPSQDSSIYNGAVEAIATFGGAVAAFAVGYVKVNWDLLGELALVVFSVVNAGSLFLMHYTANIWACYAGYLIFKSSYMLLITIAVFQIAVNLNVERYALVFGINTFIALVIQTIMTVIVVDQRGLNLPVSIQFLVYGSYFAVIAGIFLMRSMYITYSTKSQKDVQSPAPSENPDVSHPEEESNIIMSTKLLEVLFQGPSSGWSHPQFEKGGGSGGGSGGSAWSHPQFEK
Kind of assay: Mass spectrometry-based cellular thiamine-d3 uptake assay. Format: cell-based. The conditions noted are these: 200 μM compound, 2 μM thiamine-d3, 5 min, n = 3. On the procedure:
The cells were then pelleted for 5 min at 250×g and resuspended in 1×PBS (pH 7.4) at a cell density of 2 million cells per mL. The cell suspension was subsequently transferred to a 96-deep well plate in three technical replicates per condition (n = 3, 1 mL per well, corresponding to 2 million cells per condition). 200 μM of the selected compounds were added to the respective wells and the cells were incubated for 1 min on a shaking platform. […] Afterwards, the cells were pelleted for 5 min at 500×g and washed 3× with 1 mL 1×PBS (pH7.4), before transferring them to a fresh 96-deep well plate. The cell pellets were stored at –70 °C. For the LC-MS/MS analysis, the samples were extracted by adding 500 µL of a mixture of H2O:MeOH:ACN (1:1:1, v/v), containing 5% (v/v) formic acid. After vortexing and ultrasonication in a water bath for 5 min at 4 °C, samples were incubated for 20 min at –20 °C. […] The supernatants were then transferred for LC-MS analysis, which was initiated within one hour after sample preparation. LC-MS/MS analysis was performed on a Vanquish UHPLC system coupled to an Orbitrap Exploris 240 high-resolution mass spectrometer (Thermo Fisher Scientific, MA, USA) in positive ESI (electrospray ionization) mode. Chromatographic separation was carried out on an Atlantis Premier BEH Z-HILIC column (Waters, MA, USA; 2.1 mm × 100 mm, 1.7 µm) at a flow rate of 0.25 mL/min. The mobile phase consisted of water:acetonitrile (9:1, v/v; mobile phase phase A) and acetonitrile:water (9:1, v/v; mobile phase B), which were modified with a total buffer concentration of 10 mM ammonium formate. The aqueous portion of each mobile phase was adjusted to pH 3.0 via addition of formic acid. The following gradient (8 min total run time including re-equilibration) was applied (time [min]/%B): 0/90, 3/85, 3.5/60, 4/60, 5/90, 8/90. Column temperature was maintained at 40 °C, the autosampler was set to 4 °C and sample injection volume was set to 3 µL. Analytes were recorded via a full scan with a mass resolving power of 120,000 over a mass range from 60 to 900 m/z (scan time: 100 ms, RF lens: 70%).
All experimental samples were measured in a randomized manner. Pooled quality control (QC) samples were prepared by mixing equal aliquots from each processed sample. Multiple QCs were injected at the beginning of the analysis in order to equilibrate the analytical system. A QC sample was analyzed after every 6th experimental sample to monitor instrument performance throughout the sequence. For determination of background signals and subsequent background subtraction, an additional processed blank sample was recorded. Data was processed using TraceFinder 5.1 and raw peak area data was exported for relative metabolite quantification.

The test system of a further assay is SLC19A3. The conditions noted are these: cited from earlier work.
In assay [2] the target is glycosylation-free mutant of hSLC19A3 (hSLC19A3-gf) (human, UniProt Q9BZV2 1-496, Asn45 mutated to glutamine | Asn166 mutated to glutamine). Kind of assay: BLI.
Chain of glycosylation-free mutant of hSLC19A3 (hSLC19A3-gf) (Q9BZV2 other isoform, or with tags, fused parts or gaps with the stated changes): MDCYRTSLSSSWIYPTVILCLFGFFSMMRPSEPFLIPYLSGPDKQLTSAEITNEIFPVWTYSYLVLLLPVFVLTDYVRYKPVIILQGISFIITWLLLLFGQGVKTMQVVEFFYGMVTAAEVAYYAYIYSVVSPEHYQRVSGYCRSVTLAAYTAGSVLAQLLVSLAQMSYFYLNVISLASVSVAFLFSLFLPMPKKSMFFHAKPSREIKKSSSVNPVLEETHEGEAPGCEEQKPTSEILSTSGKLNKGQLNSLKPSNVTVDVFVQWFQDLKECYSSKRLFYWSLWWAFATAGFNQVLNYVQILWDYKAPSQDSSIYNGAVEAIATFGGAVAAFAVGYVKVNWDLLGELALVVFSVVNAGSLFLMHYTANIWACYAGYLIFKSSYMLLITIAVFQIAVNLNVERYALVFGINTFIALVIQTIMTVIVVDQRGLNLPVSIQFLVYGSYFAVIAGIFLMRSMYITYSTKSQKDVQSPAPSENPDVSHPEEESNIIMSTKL

Entries after “also recorded” stand apart in the source; their conditions may differ.

T1 sequence (Q9BZV2 with tags, fused parts or gaps): as the sequence (Q9BZV2 with tags, fused parts or gaps) above

Regarding `CN(C)CCC=C1c2ccccc2CCc2ccccc21` [amitriptyline], the “thermal shift / interaction with hSLC19A3, in words” value (“thermal shift / interaction” for short) on hSLC19A3-wt is recorded as “destabilize the transporter in a concentration-dependent manner”. Also, the “inhibition of thiamine uptake through hSLC19A3, in words” value (“inhibition” for short) in assay [1] is given as “inhibit its thiamine transport activity”.

As to `CCCc1ncc(C[n+]2ccccc2C)c(N)n1` [amprolium], the “thermal shift / interaction” value at hSLC19A3-wt is recorded as “strongly stabilised the transporter against heat unfolding in a concentration-dependent manner”.

In the case of `CCS(=O)(=O)N1CC(CC#N)(n2cc(-c3ncnc4[nH]ccc34)cn2)C1` [baricitinib], on hSLC19A3-wt, the “thermal shift / interaction” value is given as “did not stabilise hSLC19A3”.

On to `O=C(O)CCCC[C@@H]1SC[C@@H]2NC(=O)N[C@@H]21` [biotin], for which the “thermal shift / interaction” value on hSLC19A3-wt is listed as “does not interact with the transporter”.

On to `CN(C)CCCC1(c2ccc(F)cc2)OCc2cc(C#N)ccc21` (stereo not drawn) [citalopram], for which the “thermal shift / interaction” value on hSLC19A3-wt is “also interact with hSLC19A3”. Moreover, the “inhibition” value in assay [1] is given as “interferes with thiamine uptake”.

Consider `Cc1nc(Nc2ncc(C(=O)Nc3c(C)cccc3Cl)s2)cc(N2CCN(CCO)CC2)n1` [dasatinib], for which, in assay [1], the “inhibition” value is recorded as “interfered with thiamine-uptake through hSLC19A3”.

`CN(C)CCC=C1c2ccccc2COc2ccccc21` [doxepin]: the “thermal shift / interaction” value on hSLC19A3-wt is on record as “destabilize the transporter in a concentration-dependent manner”. In assay [1], the “inhibition” value is “inhibit its thiamine transport activity”.

In the case of `COc1cc2ncnc(Nc3ccc(F)c(Cl)c3)c2cc1OCCCN1CCOCC1` [gefitinib], the “inhibition” value in assay [1] is “interfered with thiamine-uptake through hSLC19A3”.

With `CCN(CCO)CCCC(C)Nc1ccnc2cc(Cl)ccc12` (stereo not drawn) [hydroxychloroquine], on hSLC19A3-wt, the Kd came to 170 ± 55 nM and the “thermal shift / interaction” value is recorded as “strongly stabilises hSLC19A3”.

Turning to `Cc1ccc(NC(=O)c2ccc(CN3CCN(C)CC3)cc2)cc1Nc1nccc(-c2cccnc2)n1` [imatinib], on hSLC19A3-wt, the Kd worked out at 4400 ± 500 nM and the “thermal shift / interaction” value is “strongly stabilized hSLC19A3”. The “inhibition” value in assay [1] was “interfered with thiamine-uptake through hSLC19A3; also recorded: inhibitory effect comparable to the one of fedratinib”.

Turning to `CN(C)CCCN1c2ccccc2CCc2ccccc21` [imipramine], at hSLC19A3-wt, the “thermal shift / interaction” value was “destabilize the transporter in a concentration-dependent manner”. Besides, in assay [1], the “inhibition” value is reported as “inhibit its thiamine transport activity”.

As for `N#CCNC(=O)c1ccc(-c2ccnc(Nc3ccc(N4CCOCC4)cc3)n2)cc1` [momelotinib], the “thermal shift / interaction” value on hSLC19A3-wt is given as “did not stabilise hSLC19A3”.

As to `Cc1ncc(C[n+]2csc(CCO)c2C)c(=O)[nH]1` [oxythiamine], the “thermal shift / interaction” value on hSLC19A3-wt is “strongly decreased affinity and a lower thermostabilisation of the transporter; also recorded: stabilises the transporter only weakly”.

Turning to `CCc1nc(N)nc(N)c1-c1ccc(Cl)cc1` [pyrimethamine], the ΔTm at 20 µM at hSLC19A3-wt (read-out: ΔTm (thermostabilisation)) turned out to be 9.3 ± 0.5 °C.

For the molecule `CN[C@H]1CC[C@@H](c2ccc(Cl)c(Cl)c2)c2ccccc21` [sertraline], at hSLC19A3-wt (at low micromolar concentrations, nanoDSF), the ΔTm is 2.5 ± 0.4 °C.

In the case of `Cc1ncc(C[n+]2csc(CCOP(=O)(O)O)c2C)c(N)n1` [thiamine-p, thiamine monophosphate], the “thermal shift / interaction” value on hSLC19A3-wt is reported as “strongly reduced affinity”.

`Cc1ncc(C[n+]2csc(CCO[P@](=O)(O)OP(=O)(O)O)c2C)c(N)n1` [thiamine-pp, thiamine pyrophosphate]: at hSLC19A3-wt, the “thermal shift / interaction” value was “does not stabilise the transporter at all”.

`C[C@@H]1CCN(C(=O)CC#N)C[C@@H]1N(C)c1ncnc2[nH]ccc12` [tofacitinib]: the “thermal shift / interaction” value on hSLC19A3-wt is on record as “stabilising hSLC19A3”. Moreover, the “inhibition” value in assay [1] is on record as “shows no inhibitory effect on thiamine transport”.

Consider `COc1cc(Cc2cnc(N)nc2N)cc(OC)c1OC` [trimethoprim], for which the “substrate status at the transporter” value in the assay with SLC19A3 is recorded as “xenobiotic substrates of the transporter”.

B1: nanobody Nb3.7 (VHH)
VHH: QVQLVESGGGLVQPGDSLRLSCAASGRTFSINAMAWFRQAPGKEREYVAQISWTGGNTYYAESVKGRFTISRDNAKNTVYLQMISLKPEDTAVYYCAADSGGIRLGASRWNYWGQGTQVTVSS
With B1, in assay [2], the Kd was found to be 110 nM.

B2: nanobody Nb3.3 (VHH)
VHH: QVQLVESGGGLVQAGDSLRLSCAASGRTFSNYYMAWFRQAPGKEREFVAAIRLSYGSTYYADSVRGRFTISKDNAKNTVNLRMNSLKSEDTAIYYCAAAEDRWALAVRTATTYNYWGQGTQVTVSS
The molecule B2 had a Kd in assay [2] of 200 nM.

B3: nanobody Nb3.4 (VHH)
VHH: QVQLVESGGGLVQAGDSLRLSCAASGLTFSRYDMAWFRQAPGKEREFVAAITWTGSITDYADSVKGRFTISRDNAKNTIYLQMNSLKPEDTAVYYCAAAQVPYGSTLKFNLRTLFGSWGQGTQVTVSS
Consider B3, for which, in assay [2], the Kd came out at 280 nM.

These data come from article PMC11447181 (Nature Communications, 2024).
